{
  "source": "patent US10351559B2",
  "about": "“Maleate salts of a B-RAF kinase inhibitor, crystalline forms, methods of preparation, and uses therefore” (BeiGene, Ltd., priority 2015, dated 2019)",
  "key": {"[1]": {"test": "short-term stability study (1 week, 60° C. and 40° C./75% RH)", "assay_type": "physicochemical", "settings": "for TRS %: sesqui-maleate salt", "protocol": "Weighed about 2 mg (For XRPD: 10 mg) of each of the above salts in a 40 mL glass vial, separately. The free base form was used as control. The closed samples were capped and sealed with parafilm, while the opened samples were covered by aluminum foil with pinhole. All the samples were stored in stability chamber or dry oven at the corresponding conditions (60° C. and 40° C./75% RH) for 1 week."}, "HER2 (aa676-1255)": {"target": "T1, HER2 (aa676-1255) (Homo sapiens, UniProt P04626)", "T1 construct": "HER2 (aa676-1255, recombinant protein purified from insect expression system); made in house; host or cells: insect expression system", "test": "HTRF KinEASE-TK kinase assay", "assay_type": "biochemical", "protocol": "(§1) Crystalline Form A* of Compound 1 Sesqui-Maleate was tested against recombinant EGFR/EPHA2/BTK (from Carna Biosciences), ITK/TEC/SRC/PDGFR-beta/TXK/FLT3/VEGFR2/RET (from Life Technologies), and HER2 (aa676-1255, recombinant protein purified from insect expression system) in HTRF KinEASE-TK assay from Cisbio Bioassays according to the manufacturer's instructions. The assay was carried out in a reaction mixture containing kinases, ATP at KM concentration, biotinylated peptide substrate (61TK0BLC, Cisbio Bioassays) and Crystalline Form A* of Compound 1 Sesqui-Maleate. […] After reaction, stop/detection solution was added according to the manufacture's instruction. The stop/detection solution contained Eu+ cryptate conjugated antiphosphotyrosine antibody (61T66kLB, CisBio Bioassays) and Streptavidin-XL665 (610SAXLB, CisBio Bioassays) in buffer containing 25 mM Tris pH7.4, 400 mM KF, 50 mM EDTA, 0.01% BSA, 0.01% Triton X-100. The TR-FRET signals (ratio of fluorescence emission at 665 nm over emission at 620 nm with excitation at 337 nm wavelength) were recorded on a PHERAstar FS plate reader (BMG Labtech) after 1 hr incubation. Phosphorylation of biotinylated peptide substrate led to the binding of both Eu+ cryptate conjugated antiphosphotyrosine antibody and streptaviding-XL665 to the biotinylated peptide. The close proximity of the donor (Eu+ cryptate) and acceptor (XL665) fluorophore led to a high degree of fluorescence resonance energy transfer from the donor fluorophore (at 620 nm) to the acceptor fluorophore (at 665 nm). The IC50 for Crystalline Form A* of Compound 1 Sesqui-Maleate was derived from fitting the dose-response % inhibition data to the four-parameter logistic model by Graphpad Prism software."}, "VEGFR2": {"target": "T2, VEGFR2 (Homo sapiens, UniProt P35968)", "T2 construct": "purchased Life Technologies", "T2 sequence (P35968 20-1356)": "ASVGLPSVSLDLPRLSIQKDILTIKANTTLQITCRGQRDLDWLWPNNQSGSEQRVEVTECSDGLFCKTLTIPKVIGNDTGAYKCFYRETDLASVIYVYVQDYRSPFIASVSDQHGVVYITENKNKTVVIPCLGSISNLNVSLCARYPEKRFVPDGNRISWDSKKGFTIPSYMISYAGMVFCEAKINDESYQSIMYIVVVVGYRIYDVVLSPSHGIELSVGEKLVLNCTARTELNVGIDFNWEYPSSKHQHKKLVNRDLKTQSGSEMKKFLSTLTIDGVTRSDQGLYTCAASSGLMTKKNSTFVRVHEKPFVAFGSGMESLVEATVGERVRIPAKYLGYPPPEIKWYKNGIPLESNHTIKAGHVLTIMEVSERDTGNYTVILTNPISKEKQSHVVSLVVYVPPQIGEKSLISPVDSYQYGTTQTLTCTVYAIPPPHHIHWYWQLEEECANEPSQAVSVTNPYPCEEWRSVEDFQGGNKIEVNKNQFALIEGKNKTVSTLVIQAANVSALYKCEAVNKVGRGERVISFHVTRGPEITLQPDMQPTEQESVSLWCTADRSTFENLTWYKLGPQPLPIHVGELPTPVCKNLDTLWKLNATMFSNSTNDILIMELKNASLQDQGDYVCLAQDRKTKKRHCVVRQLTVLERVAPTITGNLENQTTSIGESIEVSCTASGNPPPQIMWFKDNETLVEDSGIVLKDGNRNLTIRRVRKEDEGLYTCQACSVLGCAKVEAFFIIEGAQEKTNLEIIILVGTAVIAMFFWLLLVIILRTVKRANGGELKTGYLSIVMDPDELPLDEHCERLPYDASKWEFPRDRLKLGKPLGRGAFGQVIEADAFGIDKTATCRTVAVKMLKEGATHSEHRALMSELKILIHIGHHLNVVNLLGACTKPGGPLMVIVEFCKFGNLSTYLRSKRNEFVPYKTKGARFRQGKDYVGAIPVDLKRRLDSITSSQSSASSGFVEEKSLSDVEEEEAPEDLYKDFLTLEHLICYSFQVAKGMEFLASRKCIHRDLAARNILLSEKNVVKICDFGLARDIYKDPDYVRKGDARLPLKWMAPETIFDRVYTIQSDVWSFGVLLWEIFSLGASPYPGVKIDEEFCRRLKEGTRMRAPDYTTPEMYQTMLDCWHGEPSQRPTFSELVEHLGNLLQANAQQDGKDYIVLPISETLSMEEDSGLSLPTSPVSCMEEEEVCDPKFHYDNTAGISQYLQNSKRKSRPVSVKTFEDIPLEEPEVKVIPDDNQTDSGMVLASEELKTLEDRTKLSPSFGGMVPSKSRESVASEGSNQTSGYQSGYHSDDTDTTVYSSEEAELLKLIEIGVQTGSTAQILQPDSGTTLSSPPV", "test": "HTRF KinEASE-TK kinase assay", "assay_type": "biochemical", "protocol": "as §1"}, "WT-EGFR": {"target": "T3, WT-EGFR (Homo sapiens, UniProt P00533)", "T3 construct": "purchased Carna Biosciences", "T3 sequence (P00533 25-1210)": "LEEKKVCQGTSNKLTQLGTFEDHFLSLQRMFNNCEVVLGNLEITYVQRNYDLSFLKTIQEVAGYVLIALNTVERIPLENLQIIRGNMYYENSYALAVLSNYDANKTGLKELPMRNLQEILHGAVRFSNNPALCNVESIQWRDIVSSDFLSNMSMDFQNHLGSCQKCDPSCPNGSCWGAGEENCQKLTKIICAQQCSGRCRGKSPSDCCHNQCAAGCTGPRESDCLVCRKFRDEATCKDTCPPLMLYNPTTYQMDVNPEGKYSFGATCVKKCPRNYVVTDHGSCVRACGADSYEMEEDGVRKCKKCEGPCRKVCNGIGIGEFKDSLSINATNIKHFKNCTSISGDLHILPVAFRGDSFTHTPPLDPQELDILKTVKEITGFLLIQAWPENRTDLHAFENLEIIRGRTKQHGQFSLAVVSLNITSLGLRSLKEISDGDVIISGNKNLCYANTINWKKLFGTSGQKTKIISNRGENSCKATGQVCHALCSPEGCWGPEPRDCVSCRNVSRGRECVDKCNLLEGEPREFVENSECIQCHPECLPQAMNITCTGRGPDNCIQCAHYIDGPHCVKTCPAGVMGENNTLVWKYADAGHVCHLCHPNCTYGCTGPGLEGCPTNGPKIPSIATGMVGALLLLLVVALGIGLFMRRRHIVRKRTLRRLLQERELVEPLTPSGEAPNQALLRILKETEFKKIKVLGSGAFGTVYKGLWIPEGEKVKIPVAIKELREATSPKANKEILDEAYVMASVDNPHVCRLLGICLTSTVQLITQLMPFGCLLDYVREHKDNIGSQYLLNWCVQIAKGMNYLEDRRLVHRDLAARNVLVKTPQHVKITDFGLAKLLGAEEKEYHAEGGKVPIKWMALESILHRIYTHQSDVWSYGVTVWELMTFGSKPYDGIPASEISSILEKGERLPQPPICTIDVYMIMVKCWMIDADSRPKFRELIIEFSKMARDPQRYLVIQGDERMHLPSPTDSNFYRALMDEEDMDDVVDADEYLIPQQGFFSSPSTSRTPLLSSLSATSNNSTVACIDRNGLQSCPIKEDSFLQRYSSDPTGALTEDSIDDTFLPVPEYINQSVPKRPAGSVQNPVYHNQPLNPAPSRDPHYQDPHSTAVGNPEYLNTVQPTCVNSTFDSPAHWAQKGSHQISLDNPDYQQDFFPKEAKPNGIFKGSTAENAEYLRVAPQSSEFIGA", "test": "HTRF KinEASE-TK kinase assay", "assay_type": "biochemical", "protocol": "as §1"}, "BTK": {"target": "T4, BTK (Homo sapiens, UniProt Q06187)", "T4 construct": "purchased Carna Biosciences", "test": "HTRF KinEASE-TK kinase assay", "assay_type": "biochemical", "protocol": "(§2) Crystalline Form A* of Compound 1 Sesqui-Maleate was tested against recombinant EGFR/EPHA2/BTK (from Carna Biosciences), ITK/TEC/SRC/PDGFR-beta/TXK/FLT3/VEGFR2/RET (from Life Technologies), and HER2 (aa676-1255, recombinant protein purified from insect expression system) in HTRF KinEASE-TK assay from Cisbio Bioassays according to the manufacturer's instructions. The assay was carried out in a reaction mixture containing kinases, ATP at KM concentration, biotinylated peptide substrate (61TK0BLC, Cisbio Bioassays) and Crystalline Form A* of Compound 1 Sesqui-Maleate. The kinase was incubated with Crystalline Form A* of Compound 1 Sesqui-Maleate at RT for 1 hr or 2 hr (for EGFR) and the reaction was initiated by the addition of ATP and substrate. After reaction, stop/detection solution was added according to the manufacture's instruction. The stop/detection solution contained Eu+ cryptate conjugated antiphosphotyrosine antibody (61T66kLB, CisBio Bioassays) and Streptavidin-XL665 (610SAXLB, CisBio Bioassays) in buffer containing 25 mM Tris pH7.4, 400 mM KF, 50 mM EDTA, 0.01% BSA, 0.01% Triton X-100. The TR-FRET signals (ratio of fluorescence emission at 665 nm over emission at 620 nm with excitation at 337 nm wavelength) were recorded on a PHERAstar FS plate reader (BMG Labtech) after 1 hr incubation. Phosphorylation of biotinylated peptide substrate led to the binding of both Eu+ cryptate conjugated antiphosphotyrosine antibody and streptaviding-XL665 to the biotinylated peptide. The close proximity of the donor (Eu+ cryptate) and acceptor (XL665) fluorophore led to a high degree of fluorescence resonance energy transfer from the donor fluorophore (at 620 nm) to the acceptor fluorophore (at 665 nm). The IC50 for Crystalline Form A* of Compound 1 Sesqui-Maleate was derived from fitting the dose-response % inhibition data to the four-parameter logistic model by Graphpad Prism software."}, "EPHA2": {"target": "T5, EPHA2 (Homo sapiens, UniProt P29317)", "T5 construct": "purchased Carna Biosciences", "test": "HTRF KinEASE-TK kinase assay", "assay_type": "biochemical", "protocol": "as §2"}, "FLT3": {"target": "T6, FLT3 (Homo sapiens, UniProt P36888)", "T6 construct": "purchased Life Technologies", "T6 sequence (P36888 27-993)": "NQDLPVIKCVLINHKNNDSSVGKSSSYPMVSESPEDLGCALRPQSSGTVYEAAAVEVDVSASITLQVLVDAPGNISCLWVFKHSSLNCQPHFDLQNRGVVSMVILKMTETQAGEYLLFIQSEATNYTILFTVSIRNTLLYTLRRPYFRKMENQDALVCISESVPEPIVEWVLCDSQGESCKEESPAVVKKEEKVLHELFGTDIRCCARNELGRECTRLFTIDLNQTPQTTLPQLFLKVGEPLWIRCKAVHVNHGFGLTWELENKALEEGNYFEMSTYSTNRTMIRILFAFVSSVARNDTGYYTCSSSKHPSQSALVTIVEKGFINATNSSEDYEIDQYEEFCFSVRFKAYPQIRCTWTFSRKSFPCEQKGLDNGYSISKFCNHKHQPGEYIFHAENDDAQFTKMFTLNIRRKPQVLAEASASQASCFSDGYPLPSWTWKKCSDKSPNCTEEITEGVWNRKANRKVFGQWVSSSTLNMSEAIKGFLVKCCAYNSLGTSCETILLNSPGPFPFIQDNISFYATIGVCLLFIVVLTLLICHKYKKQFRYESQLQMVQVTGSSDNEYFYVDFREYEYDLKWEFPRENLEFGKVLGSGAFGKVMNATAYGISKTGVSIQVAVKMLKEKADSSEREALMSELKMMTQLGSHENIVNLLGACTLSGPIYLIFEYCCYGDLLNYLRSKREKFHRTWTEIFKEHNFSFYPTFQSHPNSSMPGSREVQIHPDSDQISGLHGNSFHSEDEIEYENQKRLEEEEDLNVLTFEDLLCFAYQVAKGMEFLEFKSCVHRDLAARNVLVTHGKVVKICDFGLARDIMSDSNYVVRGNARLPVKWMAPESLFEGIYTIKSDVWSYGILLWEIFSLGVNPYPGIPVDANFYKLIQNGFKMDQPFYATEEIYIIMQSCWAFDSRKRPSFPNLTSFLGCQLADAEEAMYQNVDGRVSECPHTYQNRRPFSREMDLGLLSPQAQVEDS", "test": "HTRF KinEASE-TK kinase assay", "assay_type": "biochemical", "protocol": "as §2"}, "ITK": {"target": "T7, ITK (Homo sapiens, UniProt Q08881)", "T7 construct": "purchased Life Technologies", "test": "HTRF KinEASE-TK kinase assay", "assay_type": "biochemical", "protocol": "as §2"}, "PDGFR-beta": {"target": "T8, PDGFR-beta (Homo sapiens, UniProt P09619)", "T8 construct": "purchased Life Technologies", "test": "HTRF KinEASE-TK kinase assay", "assay_type": "biochemical", "protocol": "as §2"}, "RET": {"target": "T9, RET (Homo sapiens, UniProt P07949)", "T9 construct": "purchased Life Technologies", "T9 sequence (P07949 29-1114)": "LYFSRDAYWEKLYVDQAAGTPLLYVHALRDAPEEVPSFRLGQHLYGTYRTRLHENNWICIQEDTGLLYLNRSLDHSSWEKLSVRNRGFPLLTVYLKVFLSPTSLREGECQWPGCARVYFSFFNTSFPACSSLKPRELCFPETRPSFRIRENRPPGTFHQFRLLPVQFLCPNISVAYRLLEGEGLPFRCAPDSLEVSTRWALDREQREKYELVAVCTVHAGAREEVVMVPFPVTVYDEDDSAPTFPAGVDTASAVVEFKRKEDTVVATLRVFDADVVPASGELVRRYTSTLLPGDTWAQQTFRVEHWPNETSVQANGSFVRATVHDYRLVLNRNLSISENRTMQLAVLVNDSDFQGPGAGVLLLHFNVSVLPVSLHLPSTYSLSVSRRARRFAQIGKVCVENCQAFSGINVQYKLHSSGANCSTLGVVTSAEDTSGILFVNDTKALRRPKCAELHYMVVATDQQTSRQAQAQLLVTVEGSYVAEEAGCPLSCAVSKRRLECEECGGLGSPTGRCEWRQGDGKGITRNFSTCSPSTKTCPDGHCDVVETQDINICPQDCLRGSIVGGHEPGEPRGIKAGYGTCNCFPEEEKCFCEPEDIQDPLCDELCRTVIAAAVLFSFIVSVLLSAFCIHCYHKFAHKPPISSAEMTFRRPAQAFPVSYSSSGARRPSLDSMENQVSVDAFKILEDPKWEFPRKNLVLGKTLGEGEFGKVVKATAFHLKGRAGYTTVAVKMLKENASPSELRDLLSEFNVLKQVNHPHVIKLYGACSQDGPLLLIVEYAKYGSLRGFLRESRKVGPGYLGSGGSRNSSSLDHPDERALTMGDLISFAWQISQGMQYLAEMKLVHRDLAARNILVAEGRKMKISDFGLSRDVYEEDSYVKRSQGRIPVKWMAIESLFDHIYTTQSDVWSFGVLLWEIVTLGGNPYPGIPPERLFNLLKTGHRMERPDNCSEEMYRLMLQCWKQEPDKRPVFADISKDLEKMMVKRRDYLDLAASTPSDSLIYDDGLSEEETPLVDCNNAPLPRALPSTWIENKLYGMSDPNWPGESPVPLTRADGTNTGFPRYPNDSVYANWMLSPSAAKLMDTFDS", "test": "HTRF KinEASE-TK kinase assay", "assay_type": "biochemical", "protocol": "as §2"}, "SRC": {"target": "T10, SRC (Homo sapiens, UniProt P12931)", "T10 construct": "purchased Life Technologies", "test": "HTRF KinEASE-TK kinase assay", "assay_type": "biochemical", "protocol": "as §2"}, "TEC": {"target": "T11, TEC (Homo sapiens, UniProt P42680)", "T11 construct": "purchased Life Technologies", "test": "HTRF KinEASE-TK kinase assay", "assay_type": "biochemical", "protocol": "as §2"}, "TXK": {"target": "T12, TXK (Homo sapiens, UniProt P42681)", "T12 construct": "purchased Life Technologies", "test": "HTRF KinEASE-TK kinase assay", "assay_type": "biochemical", "protocol": "as §2"}, "[2]": {"tested_on": "BRAF V600E and KRAS cancers", "test": "Phase I clinical study", "assay_type": "in vivo, human", "settings": "capsules, 5-50 mg single doses, 25 subjects"}},
  "note": "pIC50: −log10 of the molar value. Structures can show the parent of a compound that is named as a salt.",
  "data": [
    {"molecule": "O=C1CCc2c(Oc3ccc4c(c3)[C@@H]3[C@H](O4)[C@H]3c3nc4ccc(C(F)(F)F)cc4[nH]3)ccnc2N1", "note": "[5-(((1R,1aS,6bR)-1-(6-(trifluoromethyl)-1H-benzo[d]imidazol-2-yl)-1a,6b-dihydro-1H-cyclopropa[b]benzofuran-5-yl)oxy)-3,4-dihydro-1,8-naphthyridin-2(1H)-one sesqui-maleate salt]", "values": [
      {"measurement": "TRS %", "setting": "[1]; 0 day", "value": 0.08, "unit": "%"},
      {"measurement": "TRS %", "setting": "[1]; 40° C./75% RH, 1 week", "value": 0.10, "unit": "%"},
      {"measurement": "TRS %", "setting": "[1]; 60° C., 1 week", "value": 0.17, "unit": "%"},
      {"measurement": "chemical degradation", "setting": "[1]; after one week at 60° C. and 40° C./75% RH", "value": "did not show degradations"},
      {"measurement": "appearance by visual observation", "setting": "[1]; both conditions after 1 week", "value": "no change"},
      {"measurement": "enzyme inhibition", "setting": "HER2 (aa676-1255)", "value": "weak inhibition"},
      {"measurement": "pIC50", "setting": "HER2 (aa676-1255); ATP at KM", "value": 5.59},
      {"measurement": "enzyme inhibition", "setting": "VEGFR2", "value": "potently inhibits"},
      {"measurement": "pIC50", "setting": "VEGFR2; ATP at KM", "value": 7.66},
      {"measurement": "enzyme inhibition", "setting": "WT-EGFR; EGFR", "value": "potently inhibits"},
      {"measurement": "pIC50", "setting": "WT-EGFR; WT-EGFR, ATP at KM", "value": 7.36},
      {"measurement": "enzyme inhibition", "setting": "BTK", "value": "no inhibition"},
      {"measurement": "pIC50", "setting": "BTK; ATP at KM", "value": "< 5.00"},
      {"measurement": "enzyme inhibition", "setting": "EPHA2", "value": "potently inhibits"},
      {"measurement": "pIC50", "setting": "EPHA2; ATP at KM", "value": 7.21},
      {"measurement": "enzyme inhibition", "setting": "FLT3", "value": "potently inhibits"},
      {"measurement": "pIC50", "setting": "FLT3; ATP at KM", "value": 7.60},
      {"measurement": "enzyme inhibition", "setting": "ITK", "value": "no inhibition"},
      {"measurement": "pIC50", "setting": "ITK; ATP at KM", "value": "< 5.00"},
      {"measurement": "enzyme inhibition", "setting": "PDGFR-beta", "value": "potently inhibits"},
      {"measurement": "pIC50", "setting": "PDGFR-beta; ATP at KM", "value": 7.77},
      {"measurement": "enzyme inhibition", "setting": "RET", "value": "potently inhibits"},
      {"measurement": "pIC50", "setting": "RET; ATP at KM", "value": 7.74},
      {"measurement": "enzyme inhibition", "setting": "SRC", "value": "weak inhibition"},
      {"measurement": "pIC50", "setting": "SRC; ATP at KM", "value": 6.04},
      {"measurement": "enzyme inhibition", "setting": "TEC", "value": "no inhibition"},
      {"measurement": "pIC50", "setting": "TEC; ATP at KM", "value": "< 5.00"},
      {"measurement": "enzyme inhibition", "setting": "TXK", "value": "weak inhibition"},
      {"measurement": "pIC50", "setting": "TXK; ATP at KM", "value": 5.32},
      {"measurement": "clinical safety of single doses", "setting": "[2]", "value": "safe and well tolerated"}
    ]}
  ]
}
